# Measured values as given in ChEMBL document CHEMBL3885881, “DrugMatrix”.
# Species: Rattus norvegicus
# Assay: DrugMatrix - Regimen: Daily Repeat
# Format: toxicity, organism-based, Sprague-Dawley
# Design: regimen Daily Repeat, gender Male, age 6-8 weeks
# Details: in vivo, po, route oral GAVAGE, vehicle 100 % SALINE; for ABSOLUTE BASOPHIL / ABSOLUTE EOSINOPHIL / ABSOLUTE LYMPHOCYTE / ABSOLUTE MONOCYTE / ABSOLUTE SEGMENTED NEUTROPHIL / BASOPHIL / EOSINOPHIL / ERYTHROCYTE COUNT / HEMATOCRIT / HEMOGLOBIN / LEUKOCYTE COUNT / LYMPHOCYTE / MEAN CORPUSCULAR HEMOGLOBIN / MEAN CORPUSCULAR HEMOGLOBIN CONCENTRATION / MEAN CORPUSCULAR VOLUME / MONOCYTE / NEUTROPHIL / NUCLEATED RED BLOOD CELLS / PLATELET COUNT: tissue Blood; for ALANINE AMINOTRANSFERASE / ALBUMIN / ALKALINE PHOSPHATASE / ASPARTATE AMINOTRANSFERASE / BLOOD UREA NITROGEN / CARBON DIOXIDE / CHLORIDE / CHOLESTEROL / CREATINE PHOSPHOKINASE / CREATININE / GLUCOSE / LACTATE DEHYDROGENASE / LIPASE / PHOSPHORUS / POTASSIUM / SODIUM / TOTAL BILIRUBIN / TOTAL PROTEIN / URIC ACID: tissue Plasma
# [1] = 0 mg/kg, 72 h, dose level Control, time 3 day
# [2] = 0 mg/kg, 120 h, dose level Control, time 5 day
# [3] = 17 mg/kg, 72 h, dose level Low, time 3 day
# [4] = 17 mg/kg, 120 h, dose level Low, time 5 day
smiles,measurement,setting,value
O=P1(NCCCl)OCCCN1CCCl (configuration not stated) [IFOSFAMIDE],ABSOLUTE BASOPHIL,[1],0 CELLS/uL
same,ABSOLUTE EOSINOPHIL,[1],0 CELLS/uL
same,ABSOLUTE LYMPHOCYTE,[1],8960.83 CELLS/uL
same,ABSOLUTE MONOCYTE,[1],103.5 CELLS/uL
same,ABSOLUTE SEGMENTED NEUTROPHIL,[1],635.67 CELLS/uL
same,BASOPHIL,[1],0%
same,EOSINOPHIL,[1],0%
same,ERYTHROCYTE COUNT,[1],5.09 x10E6/uL
same,HEMATOCRIT,[1],31.8%
same,HEMOGLOBIN,[1],12.42 G/DL
same,LEUKOCYTE COUNT,[1],9.7 x10E3/uL
same,LYMPHOCYTE,[1],92.33%
same,MEAN CORPUSCULAR HEMOGLOBIN,[1],24.4 pg
same,MEAN CORPUSCULAR HEMOGLOBIN CONCENTRATION,[1],39.07 G/DL
same,MEAN CORPUSCULAR VOLUME,[1],62.47 fL
same,MONOCYTE,[1],1%
same,NEUTROPHIL,[1],6.67%
same,NUCLEATED RED BLOOD CELLS,[1],0 /100WBC
same,PLATELET COUNT,[1],466.5 x10E3/uL
same,ALANINE AMINOTRANSFERASE,[1],83.33 u/L
same,ALBUMIN,[1],4.33 G/DL
same,ALKALINE PHOSPHATASE,[1],340.5 u/L
same,ASPARTATE AMINOTRANSFERASE,[1],189.83 u/L
same,BLOOD UREA NITROGEN,[1],15.83 mg/dL
same,CARBON DIOXIDE,[1],38 mmol/L
same,CHLORIDE,[1],96.83 MEQ/L
same,CHOLESTEROL,[1],72.5 mg/dL
same,CREATINE PHOSPHOKINASE,[1],370.67 u/L
same,CREATININE,[1],0.28 mg/dL
same,GLUCOSE,[1],182.83 mg/dL
same,LACTATE DEHYDROGENASE,[1],513.5 u/L
same,LIPASE,[1],9.83 u/L
same,PHOSPHORUS,[1],11.32 mg/dL
same,POTASSIUM,[1],6.32 MEQ/L
same,SODIUM,[1],145.12 MEQ/L
same,TOTAL BILIRUBIN,[1],0.2 mg/dL
same,TOTAL PROTEIN,[1],6.4 G/DL
same,URIC ACID,[1],2.03 mg/dL
same,ABSOLUTE BASOPHIL,[2],0 CELLS/uL
same,ABSOLUTE EOSINOPHIL,[2],43.83 CELLS/uL
same,ABSOLUTE LYMPHOCYTE,[2],7316.67 CELLS/uL
same,ABSOLUTE MONOCYTE,[2],87.33 CELLS/uL
same,ABSOLUTE SEGMENTED NEUTROPHIL,[2],418.83 CELLS/uL
same,BASOPHIL,[2],0%
same,EOSINOPHIL,[2],0.33%
same,ERYTHROCYTE COUNT,[2],4.77 x10E6/uL
same,HEMATOCRIT,[2],29.93%
same,HEMOGLOBIN,[2],11.48 G/DL
same,LEUKOCYTE COUNT,[2],7.87 x10E3/uL
same,LYMPHOCYTE,[2],93.5%
same,MEAN CORPUSCULAR HEMOGLOBIN,[2],24.17 pg
same,MEAN CORPUSCULAR HEMOGLOBIN CONCENTRATION,[2],38.57 G/DL
same,MEAN CORPUSCULAR VOLUME,[2],62.68 fL
same,MONOCYTE,[2],1%
same,NEUTROPHIL,[2],5.17%
same,NUCLEATED RED BLOOD CELLS,[2],0 /100WBC
same,PLATELET COUNT,[2],377.67 x10E3/uL
same,ALANINE AMINOTRANSFERASE,[2],89 u/L
same,ALBUMIN,[2],4.42 G/DL
same,ALKALINE PHOSPHATASE,[2],275.17 u/L
same,ASPARTATE AMINOTRANSFERASE,[2],204.17 u/L
same,BLOOD UREA NITROGEN,[2],15.33 mg/dL
same,CARBON DIOXIDE,[2],36.83 mmol/L
same,CHLORIDE,[2],94.67 MEQ/L
same,CHOLESTEROL,[2],92 mg/dL
same,CREATINE PHOSPHOKINASE,[2],514.5 u/L
same,CREATININE,[2],0.24 mg/dL
same,GLUCOSE,[2],184.17 mg/dL
same,LACTATE DEHYDROGENASE,[2],648.67 u/L
same,LIPASE,[2],10 u/L
same,PHOSPHORUS,[2],12.33 mg/dL
same,POTASSIUM,[2],6.51 MEQ/L
same,SODIUM,[2],144.63 MEQ/L
same,TOTAL BILIRUBIN,[2],0.18 mg/dL
same,TOTAL PROTEIN,[2],6.7 G/DL
same,URIC ACID,[2],2.33 mg/dL
same,ABSOLUTE BASOPHIL,[3],0 CELLS/uL
same,ABSOLUTE EOSINOPHIL,[3],0 CELLS/uL
same,ABSOLUTE LYMPHOCYTE,[3],7711.33 CELLS/uL
same,ABSOLUTE MONOCYTE,[3],107 CELLS/uL
same,ABSOLUTE SEGMENTED NEUTROPHIL,[3],448.33 CELLS/uL
same,BASOPHIL,[3],0%
same,EOSINOPHIL,[3],0%
same,ERYTHROCYTE COUNT,[3],6.17 x10E6/uL
same,HEMATOCRIT,[3],39.13%
same,HEMOGLOBIN,[3],15.1 G/DL
same,LEUKOCYTE COUNT,[3],8.27 x10E3/uL
same,LYMPHOCYTE,[3],93.33%
same,MEAN CORPUSCULAR HEMOGLOBIN,[3],24.47 pg
same,MEAN CORPUSCULAR HEMOGLOBIN CONCENTRATION,[3],38.6 G/DL
same,MEAN CORPUSCULAR VOLUME,[3],63.47 fL
same,MONOCYTE,[3],1.33%
same,NEUTROPHIL,[3],5.33%
same,NUCLEATED RED BLOOD CELLS,[3],0 /100WBC
same,PLATELET COUNT,[3],648 x10E3/uL
same,ALANINE AMINOTRANSFERASE,[3],47.33 u/L
same,ALBUMIN,[3],4.43 G/DL
same,ALKALINE PHOSPHATASE,[3],256.67 u/L
same,ASPARTATE AMINOTRANSFERASE,[3],80.33 u/L
same,BLOOD UREA NITROGEN,[3],15 mg/dL
same,CARBON DIOXIDE,[3],38.67 mmol/L
same,CHLORIDE,[3],95.67 MEQ/L
same,CHOLESTEROL,[3],85 mg/dL
same,CREATINE PHOSPHOKINASE,[3],300 u/L
same,CREATININE,[3],0.31 mg/dL
same,GLUCOSE,[3],148.67 mg/dL
same,LACTATE DEHYDROGENASE,[3],171.67 u/L
same,LIPASE,[3],11.33 u/L
same,PHOSPHORUS,[3],11.57 mg/dL
same,POTASSIUM,[3],6.47 MEQ/L
same,SODIUM,[3],144.97 MEQ/L
same,TOTAL BILIRUBIN,[3],0.2 mg/dL
same,TOTAL PROTEIN,[3],6.5 G/DL
same,URIC ACID,[3],1.23 mg/dL
same,ABSOLUTE BASOPHIL,[4],0 CELLS/uL
same,ABSOLUTE EOSINOPHIL,[4],0 CELLS/uL
same,ABSOLUTE LYMPHOCYTE,[4],4979.67 CELLS/uL
same,ABSOLUTE MONOCYTE,[4],84.33 CELLS/uL
same,ABSOLUTE SEGMENTED NEUTROPHIL,[4],269.33 CELLS/uL
same,BASOPHIL,[4],0%
same,EOSINOPHIL,[4],0%
same,ERYTHROCYTE COUNT,[4],5.71 x10E6/uL
same,HEMATOCRIT,[4],35.77%
same,HEMOGLOBIN,[4],13.23 G/DL
same,LEUKOCYTE COUNT,[4],5.33 x10E3/uL
same,LYMPHOCYTE,[4],93%
same,MEAN CORPUSCULAR HEMOGLOBIN,[4],23.13 pg
same,MEAN CORPUSCULAR HEMOGLOBIN CONCENTRATION,[4],37.2 G/DL
same,MEAN CORPUSCULAR VOLUME,[4],62.3 fL
same,MONOCYTE,[4],1.67%
same,NEUTROPHIL,[4],5.33%
same,NUCLEATED RED BLOOD CELLS,[4],0 /100WBC
same,PLATELET COUNT,[4],184 x10E3/uL
same,ALANINE AMINOTRANSFERASE,[4],92.33 u/L
same,ALBUMIN,[4],4.3 G/DL
same,ALKALINE PHOSPHATASE,[4],295.33 u/L
same,ASPARTATE AMINOTRANSFERASE,[4],158.33 u/L
same,BLOOD UREA NITROGEN,[4],17 mg/dL
same,CARBON DIOXIDE,[4],38 mmol/L
same,CHLORIDE,[4],94 MEQ/L
same,CHOLESTEROL,[4],79.67 mg/dL
same,CREATINE PHOSPHOKINASE,[4],366 u/L
same,CREATININE,[4],0.26 mg/dL
same,GLUCOSE,[4],149.67 mg/dL
same,LACTATE DEHYDROGENASE,[4],519 u/L
same,LIPASE,[4],9.67 u/L
same,PHOSPHORUS,[4],12.83 mg/dL
same,POTASSIUM,[4],7.12 MEQ/L
same,SODIUM,[4],144.83 MEQ/L
same,TOTAL BILIRUBIN,[4],0.17 mg/dL
same,TOTAL PROTEIN,[4],6.57 G/DL
same,URIC ACID,[4],1.43 mg/dL
